Measurements reported in a melting point compilation (Tetko et al.; mined from patent text by program, amines drawn as free bases though some values may be those of a salt).

Row | Structure (SMILES) | melting point [°C]
1 | COC(=O)C1=C(CC(=O)N2CCN(C)CC2)NC(CS(=O)c2ccccc2C)=C(C(=O)OC)C1c1c(Cl)cccc1Cl (stereo unspecified) | 183
2 | CCOC(=O)Cc1cccc2c(=O)cc(C3=CCCCC3)oc12 | 126 to 127
3 | O=C(NCc1ccccc1)c1ccnc(-n2ccc(O)cc2=O)c1 | 102 to 105
4 | COc1cc(Nc2nccc(-c3cccc(NC(=O)c4cccnc4)c3)n2)cc(OC)c1OC | 140 to 143
5 | COc1ccc(OCC(O)CNC(C)(C)C)c(C2=NNC(=O)CC2)c1 (stereo unspecified) | 127 to 128
6 | C#CCn1c(C)c(C(=O)OCC)sc1=O | 65
7 | CC(C)(C)C#Cc1cc(Cl)cc2c1OC(C(F)(F)F)C(C(=O)O)=C2 (stereo unspecified) | 218 to 222
8 | Cc1nn(-c2ccc(Cl)nn2)c(C)c1Br | 143 to 145
9 | O=C(O)CNC(=O)c1nc(Cl)c2cc(Cl)c(Cl)cc2c1O | 265
10 | Cc1cccc2c1N(CC(=O)N1CC3CCC(CC3)C1)C(=O)C(NC(=O)Nc1cccc(Cl)c1)N=C2c1ccccc1F (stereo unspecified) | > 250
11 | COc1ccc2nc(Cl)c(OC)nc2c1 | 79 to 81
12 | O=C1NC(=O)C(Cc2ccc(SCc3ccccc3)cc2)S1 (stereo unspecified) | 102 to 103
13 | O=[N+]([O-])c1cc(O)c(OCCOCCO)cc1[N+](=O)[O-] | 135
14 | Cc1oc(-c2ccccc2)nc1COc1cc(CO)on1 | 99 to 100
15 | CC(CC#N)N1C(=O)C2(OCCCO2)c2cc(Br)ccc21 (stereo unspecified) | 112 to 113
16 | Cc1ccc(N2C(=O)C(O)=C(C(=O)c3ccc(C(C)C)cc3)C2c2ccc(OC(C)C)cc2)nn1 (stereo unspecified) | 280 to 281
17 | CC1(C)CCC(Cc2ccc(Cl)cc2)C1(O)COS(C)(=O)=O (stereo unspecified) | 113 to 114
18 | COc1cccc(C(=O)O)c1C | 145 to 147
19 | Cn1c(CO)c(-c2ccc(F)cc2)c2ccccc21 | 99 to 104
20 | CC1(C)OC(=S)Nc2ccc(-c3cccc(F)c3F)cc21 | 197 to 198
21 | CCCCC(=O)Nc1ccc(C(=O)OC)cc1[N+](=O)[O-] | 106 to 107
22 | CCCC(Sc1cc(C(C)(C)C)c(O)c(C(C)(C)C)c1)C(=O)Nc1c(C)cccc1C (stereo unspecified) | 137 to 140
23 | O=C(O)c1ccc2c(c1)C(=O)N(c1ccccc1C(=O)O)C2=O | 262 to 264
24 | CC(C)N[C@@H]1CCc2c(ccc(OCc3ccccc3)c2CO)[C@H]1O (relative stereo) | 138 to 139

Row | Structure (SMILES) | melting point [°C]
25 | O=C(Cc1ccc(OCc2ccccc2C(=O)O)cc1)NC1(C(=O)O)Cc2ccc(-c3ccc(Cl)cc3)cc2C1 (stereo unspecified) | 209 to 211
26 | O=C1OC(Cc2ccccc2)CN1c1cccc(F)c1 (stereo unspecified) | 96 to 97.5
27 | CN(C)C(=O)c1c(C(=O)CBr)c2cc(Cl)ccc2n1C(=O)OC(C)(C)C | 110 to 115
28 | O=C(O)c1ccc(Cl)c(S(=O)(=O)NC2CCCCCCC2)c1 | 134
29 | COc1ccccc1N1CCc2c(Cl)nc3c(OC)cccc3c21 | 99 to 101
30 | O=S(=O)(c1ccccc1)c1c[nH]c2cccc(Br)c12 | 202 to 207
31 | CN1CCN(Cc2c(Cl)cccc2Cl)C(C2=NCCN2)C1 (stereo unspecified) | 182 to 184
32 | O=C(Nc1cnc(-c2ccccc2)[nH]c1=O)OCc1ccccc1 | 217 to 219
33 | CNC(C)CN1CCc2c(c(=O)oc3cc(OC)c(OC)cc23)C1 (stereo unspecified) | 137 to 139
34 | COCOc1ccc(OC)c(-c2ccc(C[C@H](NC(=O)c3c(Cl)cccc3Cl)C(=O)O)cc2)c1OC | 156 to 157
35 | Fc1ccc2[nH]c3c4ccccc4nc-3c(Cl)c2c1 | 208 to 210
36 | COC(=O)C1CCCn2c(=O)n(CC(=O)OCc3ccccc3)c(=O)n21 (stereo unspecified) | 103 to 106
37 | CCCCOC(=O)Nc1ccc2cnn(Cc3ccc(C(=O)NS(=O)(=O)c4ccccc4)cc3OC)c2c1 | 153 to 154
38 | COc1cc(COc2nn(-c3ccccc3)cc2C=O)ccc1OCc1nc(-c2cccc(O)c2)oc1C | 193 to 194
39 | Cc1ccccc1-n1c(-c2sc(Nc3ccccc3)nc2-c2ccccc2)nc2ccccc2c1=O | 141 to 143
40 | CC(=Nc1ccccc1C(C)C)Nc1ccccc1C(C)C | 94 to 96
41 | Nc1sc(-c2ccc(F)cc2)cc1C(=O)O | 172 to 174
42 | O=C(O)C1=CCC(c2ccccc2)(c2ccccc2)CC1 | 227 to 229
43 | NCC(O)COCCCCCCCCc1ccccc1 (stereo unspecified) | 50 to 54
44 | C[C@@H](N1CCN(c2ccc(Cl)cc2)C1=O)[C@@]1(c2ccc(F)cc2F)CO1 | 130 to 131
45 | Cc1ccc([C@@H](Sc2cc(C)ccc2N)[C@H](O)C(N)=O)cc1 | 145 to 146
46 | CN(C)CC#CC1=Cc2ccccc2Sc2ccc(Cl)cc21 | 118 to 120
47 | CNCCn1nc2c3c(c(NCCNCCO)ccc31)C(=O)c1c(OCc3ccccc3)ccc(OCc3ccccc3)c1-2 | 186 to 189
48 | Cc1cccc(CC(Nc2ccc3c(c2)C(=O)OC3)C(=O)NC(C#N)CCCCc2cccc(C(=O)O)c2)c1 (stereo unspecified) | 91 to 94

Row | Structure (SMILES) | melting point [°C]
49 | Cc1ccc(-c2cn(C)cc(-c3ccccc3)c2=O)cc1 | 144
50 | CC(C)(C)CC(=Cc1ccc(Cl)cc1)Cn1cncn1 | 81 to 84
51 | O=C(O)Cc1c(C(=O)c2ccc(OC(F)(F)F)cc2)[nH]c2ccc(Cl)cc12 | 187
52 | CCCCOc1ccc(S(=O)(=O)C2(C(=O)NO)CCN(Cc3ccc(F)cc3)CC2)cc1 | 112
53 | Cn1c(C(F)F)nn(-c2cc(OCC(N)=O)c(Cl)cc2Cl)c1=O | 190 to 194
54 | CCN(CC)Cc1ccc2[nH]c(-c3ccccc3)cc(=O)c2c1 | 228 to 230
55 | CN(CCCc1nc2ccccc2[nH]1)C(=O)OCc1ccccc1 | 83 to 86
56 | COc1cc(C=CC2=CC(=O)C(C)(C)O2)cc(OC)c1OC | 149 to 150
57 | CN(C)C=CC(=O)c1ccc(OCC(O)CN2CCN(c3cccc(Cl)c3)CC2)cc1 (stereo unspecified) | 130 to 133
58 | O=CN1CCC2=C(CCCC2)C1Cc1ccc(O)cc1 (stereo unspecified) | 154 to 156
59 | Clc1ncnc2cc3c(cc12)OCCO3 | 169 to 174
60 | COc1ccc(Oc2nc(Nc3cccc(C(=O)O)c3)nc(Oc3ccc(C#N)cc3)n2)cc1 | 240 to 242
61 | COc1ccc2[nH]cc(C3=C(c4cc(OC)c(OC)c(OC)c4)C(=O)NC3=O)c2c1 | 268
62 | COC(=O)C(O)C(CC(C)C)NC(=O)C(Cc1c[nH]cn1)NC(=O)C(CC(=O)NCCc1ccccc1)Cc1cccc2ccccc12 (mixture of isomers) | 82 to 87
63 | COc1ccc(C(=O)NC(N)=NC(=O)Cn2c(Cl)ccc2Cl)cc1 | 215 to 217
64 | O=Cc1ccc(-c2cc(O)ccc2O)cc1 | 203 to 205
65 | CC(=O)N1CCN(CCN2C=Cc3cc(S(N)(=O)=O)sc3S2(=O)=O)CC1 | 180 to 183
66 | CCOC(=O)C1=C(C)NC(c2cscn2)=NC1c1ccc(F)cc1 (stereo unspecified) | 118 to 120
67 | O=S(=O)(Nc1ccc2c(OCc3csc(-c4ccc(OC(F)(F)F)cc4)n3)cccc2c1)C(F)(F)F | 131 to 132
68 | O=C(CCc1ccc(Cl)cc1Cl)NC1N=C(C2CC2)c2ccccc2N(CC(F)(F)F)C1=O (single isomer, unassigned; (+)) | 64 to 66
69 | CCC(CC)(CCC#N)C(NC(=O)c1ccc(Cl)cc1)NC(=NC#N)Nc1cccnc1 (stereo unspecified) | 150 to 152
70 | CS(=O)(=O)Nc1ccc(C(=N)Nc2cc(Cl)cc(NC(=O)/C=C/c3ccccc3Cl)c2)cc1 | 158 to 160
71 | NCCc1c[nH]c2ccc(NC(=O)Nc3ccccc3)cc12 | 192 to 194
72 | O=c1ccn(-c2cc3[nH]c(=O)c(=O)[nH]c3cc2C(F)(F)F)cc1 | 410 to 420

Row | Structure (SMILES) | melting point [°C]
73 | Cc1c(C(=O)c2cccc(C(F)(F)F)c2)oc2c(Br)cccc12 | 97 to 98
74 | COC(=O)C[C@H](Cc1ccccc1)NC(=O)OCC(C)C | 50 to 52
75 | C#CCNc1nc(N(C2CC(C)(C)N(O)C(C)(C)C2)C2CC(C)(C)N(O)C(C)(C)C2)nc(N(C2CC(C)(C)N(O)C(C)(C)C2)C2CC(C)(C)N(O)C(C)(C)C2)n1 | 249 to 252
76 | Cc1cc(C)n2ncc(Br)c2n1 | 115 to 116
77 | CN(CC(=O)OC(C)(C)C)S(=O)(=O)c1ccc2c(Cl)cnc(NC(=N)N)c2c1 | 84
78 | CC(C)N1C(=O)NC(c2cnc3ccccc3c2)c2cc3c(cc21)OCO3 (stereo unspecified) | 202 to 205
79 | COc1ccccc1N1CCN(CCNC(=O)c2cccc(OC)c2OC)CC1 | 133 to 134
80 | CCCc1nn(C)c2c(=O)[nH]c(-c3cc(S(=O)(=O)Cl)cc4c3OCC4)nc12 | 221 to 222
81 | O=c1nc(-c2cccc(S(=O)CCc3ccccc3)n2)sc2ccccc12 (stereo unspecified) | 164 to 166
82 | O=c1c2c(Cc3ccccc3OC(F)(F)F)n[nH]c2c2cccnc2n1-c1cccc(C(F)(F)F)c1 | 247 to 252
83 | CCn1cc(C(=O)O)c(=O)c2cn(C)nc21 | 273 to 275
84 | CC(=O)Nc1ccccc1N(CC(=O)OC(C)(C)C)C(=O)CNC(=O)Nc1cccc(C)c1 | 185
85 | COc1ccc(C2c3cc(NC(=O)CC(C)(C)C)c(C)c(C)c3OC2(C)C)cc1 (stereo unspecified) | 169 to 170
86 | CC(=O)Nc1cc(C(F)(F)F)cc(C(F)(F)F)c1[N+](=O)[O-] | 190 to 192
87 | O=C(O)c1ncn(C(c2ccccc2)c2ccccc2)c1C(=O)O | 194
88 | O=C(O)c1ccc(CN2C(=O)C3(COc4cc5c(cc43)OCCO5)c3ccccc32)cc1 (stereo unspecified) | 234 to 237
89 | OCc1ncn(CCCc2ccc(OCc3coc(/C=C/c4ccccc4)n3)cc2)c1CO | 146 to 148
90 | CCCCc1cn(-c2c(Cl)cccc2Cl)c(=O)n1Cc1ccc(-c2ccccc2-c2nnn[nH]2)nc1 | 212
91 | COc1ccc(Cn2c(=O)c3ccc(Cl)cc3n(CCCCBr)c2=O)cc1 | 107 to 109
92 | CC(C=CO)c1ccc(-c2ccc(Cl)cc2)cc1 (stereo unspecified) | 130 to 132
93 | C[Si](C)(C)c1cc(Cl)sc1C(=O)NCCO | 110 to 114
94 | Cc1cn(C2CC(O)C(CNCc3ccc(Cl)cc3)O2)c(=O)[nH]c1=O (stereo unspecified) | 179 to 180
95 | CCOC(=O)NS(=O)(=O)c1cc(C(C)=O)ccc1Cl | 106
96 | CNc1nc(Br)cn2cc(C(N)=O)nc12 | 312
